Data on twelve compounds can be found in patent US11957759B1, “Rapidly accelerated fibrosarcoma (RAF) degrading compounds and associated methods of use” (Arvinas Operations, Inc., priority 2022, dated 2024).

One assay addresses T1, B-RAF G466V (Homo sapiens, UniProt P15056, G466V).
T1 construct: expressed in transfected cells; host or cells: T-Rex 293 cells (Invitrogen #R71007)
The assay can be described thus: Target protein degradation, assay D: T-Rex 293 cells, HA-BRAF_G466V, 384 well format. Type of assay: cell-based. The settings on record: T-Rex 293 HA-BRAF_G466V cells, 24 hours, Examples 83-269; for DC50: Assay D; for Dmax: T-REx-293, Assay D. In outline:
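Degradation measured by high-content imaging of anti-HA immunofluorescence in fixed T-Rex 293 cells carrying inducible HA-BRAF G466V (1 ng/mL doxycycline), after 24 h PROTAC exposure at 37 °C over 300 nM–5 pM (1:3, 11 points, 0.5% DMSO). Outputs DC50 and Dmax as % of control; nuclei counts against DMSO wells gauge toxicity.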

In another assay the target is T2, B-RAF V600E (Homo sapiens, UniProt P15056, V600E).
T2 construct: expressed in transfected cells; host or cells: T-Rex 293 cells (Invitrogen #R71007)
Put plainly: Target protein degradation, assay C: T-Rex 293 cells, HA-BRAF_V600E, 384 well format. Type of assay: cell-based. The settings on record: T-Rex 293 HA-BRAF_V600E cells, 24 hours, Examples 83-269; for DC50: Assay C; for Dmax: T-REx-293, Assay C. In outline: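 After 24 h exposure to an 11-point 1:3 series (300 nM–5 pM, 0.5% DMSO), fixed T-Rex 293 cells carrying HA-BRAF V600E (induced with 1 ng/mL doxycycline) were stained anti-HA and imaged. DC50 and Dmax were derived from BRAF intensity relative to control, and cytotoxicity from nuclear counts.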

T2 sequence (P15056 whole entry V600E): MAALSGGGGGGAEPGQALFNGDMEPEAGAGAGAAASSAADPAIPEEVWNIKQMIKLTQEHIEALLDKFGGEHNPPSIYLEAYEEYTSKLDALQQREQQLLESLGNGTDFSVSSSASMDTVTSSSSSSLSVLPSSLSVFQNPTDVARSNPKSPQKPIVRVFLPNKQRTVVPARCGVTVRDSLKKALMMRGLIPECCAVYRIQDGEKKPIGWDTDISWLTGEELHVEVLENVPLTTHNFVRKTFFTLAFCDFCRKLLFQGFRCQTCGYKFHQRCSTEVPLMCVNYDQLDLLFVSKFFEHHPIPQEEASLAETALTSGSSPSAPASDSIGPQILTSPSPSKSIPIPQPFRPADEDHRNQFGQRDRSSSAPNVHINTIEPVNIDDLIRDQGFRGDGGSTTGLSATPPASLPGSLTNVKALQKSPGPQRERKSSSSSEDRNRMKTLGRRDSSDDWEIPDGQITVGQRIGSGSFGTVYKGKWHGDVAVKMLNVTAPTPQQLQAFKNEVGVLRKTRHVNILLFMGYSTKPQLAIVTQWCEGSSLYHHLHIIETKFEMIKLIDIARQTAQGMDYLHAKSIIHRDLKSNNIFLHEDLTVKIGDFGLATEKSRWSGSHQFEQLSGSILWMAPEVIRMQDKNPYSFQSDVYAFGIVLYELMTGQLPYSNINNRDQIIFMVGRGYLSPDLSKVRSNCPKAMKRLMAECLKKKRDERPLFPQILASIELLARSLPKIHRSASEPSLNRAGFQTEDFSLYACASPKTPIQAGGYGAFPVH
T1 sequence (P15056 whole entry G466V): as the sequence (P15056 whole entry V600E) above, with G466V, E600V counted along it

The term DC50 denotes the concentration giving 50% degradation. As a reminder, the Dmax is the largest share of the target that was removed. A low value points to shallow degradation. With `N#Cc1c(NS(=O)(=O)N2CC[C@@H](F)C2)ccc(F)c1Oc1ccc2ncn(-c3ccc(N4CCN(CC5CCN(c6ccc(N7CCC(=O)NC7=O)c(F)c6)CC5)CC4)nc3)c(=O)c2c1` [Example 142, (3R)-N-{2-cyano-3-[(3-{6-[4-({1-[4-(2,4-dioxo-1,3-diazinan-1-yl)-3-fluorophenyl]piperidin-4-yl}methyl)piperazin-1-yl]pyridin-3-yl}-4-oxo-3,4-dihydroquinazolin-6-yl)oxy]-4-fluorophenyl}-3-fluoropyrrolidine-1-sulfonamide], at B-RAF G466V, the DC50 was no more than 1 nM and the Dmax was no more than 35%. On B-RAF V600E, the DC50 was in the range of 5 to 50 nM and the greatest degradation seen (Dmax) was in the range of 35 to 70%.

In the case of `CC(C)(C1CCN(c2ccc(-n3cnc4ccc(Oc5c(F)ccc(NS(=O)(=O)N6CC[C@@H](F)C6)c5C#N)cc4c3=O)cc2)CC1)N1CCN(c2ccc3c(c2)CN([C@H]2CCC(=O)NC2=O)C3=O)CC1` [Example 269, (3R)-N-(2-cyano-3-{[3-(4-{4-[2-(4-{2-[(3S)-2,6-dioxopiperidin-3-yl]-1-oxo-2,3-dihydro-1H-isoindol-5-yl}piperazin-1-yl)propan-2-yl]piperidin-1-yl}phenyl)-4-oxo-3,4-dihydroquinazolin-6-yl]oxy}-4-fluorophenyl)-3-fluoropyrrolidine-1-sulfonamide], the DC50 on B-RAF G466V is 10 to 30 nM; at B-RAF V600E, 50 to 500 nM. Besides, the Dmax was no less than 70% on B-RAF G466V and 35 to 70% at B-RAF V600E.

Turning to `N#Cc1c(NS(=O)(=O)N2CC[C@@H](F)C2)ccc(F)c1Oc1ccc2ncn(-c3ccc(N4CCC(CN5CCN(CC6CCN(c7ccc8c(c7)C(=O)N(C7CCC(=O)NC7=O)C8=O)CC6)CC5)CC4)nc3)c(=O)c2c1` (stereo partly drawn) [Example 147, (3R)-N-[2-cyano-3-({3-[6-(4-{[4-({1-[2-(2,6-dioxopiperidin-3-yl)-1,3-dioxo-2,3-dihydro-1H-isoindol-5-yl]piperidin-4-yl}methyl)piperazin-1-yl]methyl}piperidin-1-yl)pyridin-3-yl]-4-oxo-3,4-dihydroquinazolin-6-yl}oxy)-4-fluorophenyl]-3-fluoropyrrolidine-1-sulfonamide], at B-RAF G466V, the DC50 fell in the range of 1 to 10 nM and the Dmax is 35 to 70%. At B-RAF V600E, the DC50 was in the range of 5 to 50 nM and the Dmax fell in the range of 35 to 70%.

On B-RAF G466V, `C[C@H]1CN(CC2CCN(c3ccc4c(c3)CN([C@H]3CCC(=O)NC3=O)C4=O)CC2)CCN1c1ccc(-n2cnc3ccc(Oc4c(F)ccc(NS(=O)(=O)N5CC[C@@H](F)C5)c4C#N)cc3c2=O)cc1` [Example 84, (3R)-N-{2-cyano-3-[(3-(4-[(2S)-4-[(1-{2-[(3S)-2,6-dioxopiperidin-3-yl]-1-oxo-2,3-dihydro-1H-isoindol-5-yl}piperidin-4-yl)methyl]-2-methylpiperazin-1-yl]phenyl}-4-oxo-3,4-dihydroquinazolin-6-yl)oxy]-4-fluorophenyl}-3-fluoropyrrolidine-1-sulfonamide] had a DC50 of no more than 1 nM and a maximal degradation (Dmax) of 35 to 70%. On B-RAF V600E, the DC50 lay in the range of 5 to 50 nM and the Dmax lay in the range of 35 to 70%.

`N#Cc1c(NS(=O)(=O)N2CC[C@@H](F)C2)ccc(F)c1Oc1ccc2ncn(-c3cnc(N4CCC(CN5CC6(C5)CN(c5cccc7c5C(=O)N(C5CCC(=O)NC5=O)C7=O)C6)CC4)nc3)c(=O)c2c1` (stereo partly drawn) [Example 153, (3R)-N-{2-cyano-3-[(3-{2-[4-({6-[2-(2,6-dioxopiperidin-3-yl)-1,3-dioxo-2,3-dihydro-1H-isoindol-4-yl]-2,6-diazaspiro[3.3]heptan-2-yl}methyl)piperidin-1-yl]pyrimidin-5-yl}-4-oxo-3,4-dihydroquinazolin-6-yl)oxy]-4-fluorophenyl}-3-fluoropyrrolidine-1-sulfonamide] gave a DC50 at B-RAF G466V greater than 30 nM. At B-RAF V600E, the DC50 lay within 50 to 500 nM and the Dmax was 35 to 70%.

At B-RAF G466V, `N#Cc1c(NS(=O)(=O)N2CC[C@@H](F)C2)ccc(F)c1Oc1ccc2ncn(-c3cnc(N4CCC(CN5CC6(C5)CN(c5ccc7c(c5)C(=O)N(C5CCC(=O)NC5=O)C7=O)C6)CC4)nc3)c(=O)c2c1` (stereo partly drawn) [Example 133, (3R)-N-{2-cyano-3-[(3-{2-[4-({6-[2-(2,6-dioxopiperidin-3-yl)-1,3-dioxo-2,3-dihydro-1H-isoindol-5-yl]-2,6-diazaspiro[3.3]heptan-2-yl}methyl)piperidin-1-yl]pyrimidin-5-yl}-4-oxo-3,4-dihydroquinazolin-6-yl)oxy]-4-fluorophenyl}-3-fluoropyrrolidine-1-sulfonamide] showed a DC50 of 1 to 10 nM and a Dmax of 35 to 70%. On B-RAF V600E, the DC50 was 50 to 500 nM and the Dmax fell in the range of 35 to 70%.

As to `N#Cc1c(NS(=O)(=O)N2CC[C@@H](F)C2)ccc(F)c1Oc1ccc2ncn(-c3ccc(N4CC5(CN(CC6CCN(c7cccc8c7C(=O)N(C7CCC(=O)NC7=O)C8=O)CC6)C5)C4)nc3)c(=O)c2c1` (stereo partly drawn) [Example 174, (3R)-N-{2-cyano-3-[(3-{6-[6-({1-[2-(2,6-dioxopiperidin-3-yl)-1,3-dioxo-2,3-dihydro-1H-isoindol-4-yl]piperidin-4-yl}methyl)-2,6-diazaspiro[3.3]heptan-2-yl]pyridin-3-yl}-4-oxo-3,4-dihydroquinazolin-6-yl)oxy]-4-fluorophenyl}-3-fluoropyrrolidine-1-sulfonamide], on B-RAF G466V, the DC50 is 1 to 10 nM and the Dmax is no more than 35%. Moreover, at B-RAF V600E, the DC50 lay within 50 to 500 nM and the Dmax was in the range of 35 to 70%.

Turning to `N#Cc1c(NS(=O)(=O)N2CC[C@@H](F)C2)ccc(F)c1Oc1ccc2ncn(-c3ccc(N4CCC(CCCN5CCN(c6ccc7c(c6)C(=O)N(C6CCC(=O)NC6=O)C7=O)CC5)CC4)nc3)c(=O)c2c1` (stereo partly drawn) [Example 167, (3R)-N-{2-cyano-3-[(3-{6-[4-(3-{4-[2-(2,6-dioxopiperidin-3-yl)-1,3-dioxo-2,3-dihydro-1H-isoindol-5-yl]piperazin-1-yl}propyl)piperidin-1-yl]pyridin-3-yl}-4-oxo-3,4-dihydroquinazolin-6-yl)oxy]-4-fluorophenyl}-3-fluoropyrrolidine-1-sulfonamide], the values for the DC50 on B-RAF G466V and on B-RAF V600E were 1 to 10 nM and 50 to 500 nM, respectively. The Dmax is no more than 35% on B-RAF G466V and 35 to 70% at B-RAF V600E.

As to `N#Cc1c(NS(=O)(=O)N2CC[C@@H](F)C2)ccc(F)c1Oc1ccc2ncn(-c3ccc(N4CCN(CC5CCN(c6ccc7c(c6)CN([C@@H]6CCC(=O)NC6=O)C7=O)CC5)CC4)cc3)c(=O)c2c1` [Example 103, (3R)-N-(2-cyano-3-{[3-(4-{4-[(1-{2-[(3R)-2,6-dioxopiperidin-3-yl]-1-oxo-2,3-dihydro-1H-isoindol-5-yl}piperidin-4-yl)methyl]piperazin-1-yl}phenyl)-4-oxo-3,4-dihydroquinazolin-6-yl]oxy}-4-fluorophenyl)-3-fluoropyrrolidine-1-sulfonamide], at B-RAF G466V, the DC50 lay within 1 to 10 nM and the Dmax lay within 35 to 70%. On B-RAF V600E, this compound yielded a DC50 of 5 to 50 nM and a Dmax of 35 to 70%.

At B-RAF G466V, `N#Cc1c(NS(=O)(=O)N2CC[C@@H](F)C2)ccc(F)c1Oc1ccc2ncn(-c3ccc(N4CCC(CN5CCC6(CC5)CCN(c5ccc7c(c5)CN([C@H]5CCC(=O)NC5=O)C7=O)CC6)CC4)cc3)c(=O)c2c1` [Example 228, (3R)-N-(2-cyano-3-{[3-(4-{4-[(9-{2-[(3S)-2,6-dioxopiperidin-3-yl]-1-oxo-2,3-dihydro-1H-isoindol-5-yl}-3,9-diazaspiro[5.5]undecan-3-yl)methyl]piperidin-1-yl}phenyl)-4-oxo-3,4-dihydroquinazolin-6-yl]oxy}-4-fluorophenyl)-3-fluoropyrrolidine-1-sulfonamide] displayed a DC50 of 1 to 10 nM and a Dmax of 35 to 70%. For the same compound, at B-RAF V600E, the DC50 is 50 to 500 nM and the Dmax lay in the range of 35 to 70%.

On B-RAF G466V, `N#Cc1c(NS(=O)(=O)N2CC[C@@H](F)C2)ccc(F)c1Oc1ccc2ncn(-c3ccc(C4CCC5(CC4)CCN(CC4CCN(c6ccc7c(c6)CN([C@H]6CCC(=O)NC6=O)C7=O)CC4)CC5)cc3)c(=O)c2c1` [Example 226, (3R)-N-(2-cyano-3-{[3-(4-{3-[(1-{2-[(3S)-2,6-dioxopiperidin-3-yl]-1-oxo-2,3-dihydro-1H-isoindol-5-yl}piperidin-4-yl)methyl]-3-azaspiro[5.5]undecan-9-yl}phenyl)-4-oxo-3,4-dihydroquinazolin-6-yl]oxy}-4-fluorophenyl)-3-fluoropyrrolidine-1-sulfonamide] registered a DC50 of 1 to 10 nM and a Dmax of 35 to 70%. In addition, at B-RAF V600E, the DC50 lay within 50 to 500 nM and the Dmax was no more than 35%.

In the case of `N#Cc1c(NS(=O)(=O)N2CC[C@@H](F)C2)ccc(F)c1Oc1ccc2ncn(-c3ccc(N4CCN(c5ccc6c(c5)C(=O)N(C5CCC(=O)NC5=O)C6=O)CC4)nc3)c(=O)c2c1` (stereo partly drawn) [Example 161, (3R)-N-(2-cyano-3-{[3-(6-{4-[2-(2,6-dioxopiperidin-3-yl)-1,3-dioxo-2,3-dihydro-1H-isoindol-5-yl]piperazin-1-yl}pyridin-3-yl)-4-oxo-3,4-dihydroquinazolin-6-yl]oxy}-4-fluorophenyl)-3-fluoropyrrolidine-1-sulfonamide], the DC50 on B-RAF G466V was in the range of 1 to 10 nM; on B-RAF V600E, 50 to 500 nM. The Dmax on B-RAF G466V is no more than 35%; on B-RAF V600E, 35 to 70%.
